In patent US6372740B1, “2-aryl-8-oxodihydropurine derivative, process for the producing the same, medicinal compositions containing the same, and intermediates thereof” (Dainippon Pharmaceutical Co., Ltd., priority 1997, dated 2002):

Experiments:
[1] = target: T1, BZω3 receptor (Rattus norvegicus, UniProt P16257); assay: BZω3 (peripheral) benzodiazepine receptor binding assay, [3H] 4'-chlorodiazepam (Ro 5-4864); settings: rat kidney membrane, [3H] Ro 5-4864 0.5 nM, 150 minutes at 0° C.; read-out: ω3 IC50
T1 construct: from tissue; host or cells: rat (Wistar) kidney membrane fraction
Experimental: Experiment 1: Central (ω1,ω2) and Peripheral (ω3) Benzodiazepine Receptor Binding Assays
BZω1 and BZω2 receptor binding assays and the preparation of receptor membrane fractions therefor were carried out according to the method of Stephens, D. N. et al. [cf., J. Pharmacol. Exp. Ther., 253, 334-343 (1990)], and BZω3 receptor binding assay and the preparation of receptor membrane fraction therefor were done according to the method of Schoemaker, H. [cf, J. Pharmacol. Exp. Ther., 225, 61-69 (1983)] each with slight modification.
Receptor membrane fractions for ω1, ω2 and ω3 were prepared from the cerebellum (ω1), spinal cord (ω2) or kidney (ω3) in 7-8 week old male rats of Wistar strain, respectively, by the procedure described below.
After the cerebellum or spinal cord was homogenized with 20 volumes of ice-cold 50 mM Tris-citrate buffer (pH 7.1), the homogenate was centrifuged for 15 minutes at 40,000 g. The pellet obtained was washed 4 times by the same procedure, and frozen and stored for 24 hours at −60° C. The resulting pellet, after being thawed, washed with the buffer and centrifuged, was suspended in the buffer I for the binding assay (50 mM Tris-HCl buffer containing 120 mM NaCl, 5 mM KCl, 2 mM CaCl2 and 1 mM MgCl2; pH 7.4) and the suspension thus obtained (containing 1 g wet tissue/40 ml) was used for the BZω1 and BZω2receptor binding assays. On the other hand, the kidney was homogenized with 20 volumes of the ice-cold buffer II for the binding assay (50 mM Na-K phosphate buffer containing 100 mM NaCl; pH 7.4), and the mixture was filtered through 4 sheets of gauze, and centrifuged for 20 minutes at 40,000 g. The pellet obtained was suspended in the buffer II and the suspension (containing 1 g wet tissue/100 ml) was used for the binding assay as BZω3 receptor membrane source.
[^3H] Flumazenil (Ro 15-1788) (final concentration: 0.3 nM for ω1, and 1 nM for ω2) and flunitrazepam (final concentration: 10 μM) were used for the BZω1 or BZω2 receptor binding assays as the isotope-labeled and unlabeled ligands, respectively. For the BZω3 receptor binding assay, [^3H] 4′-chlorodiazepam (7-chloro-1,3-dihydro-1-methyl-5-(4-chlorophenyl)-2H-1,4-diazepin-2-one) (Ro 5-4864) (final concentration: 0.5 nM) and diazepam (final concentration: 100 μM) were used as the isotope-labeled and unlabeled ligands, respectively. Incubation was performed for 30 minutes at 37° C. in the BZω1 or BZω2 receptor binding assays, and for 150 minutes at 0° C. in the BZω3 receptor binding assay. The BZω1 or BZω2 receptor binding assays were carried out in the presence of bicuculline (final concentration: 100 μM).
The binding assay was performed by the following procedure. After adding each test compound at certain known concentrations, a [^3H] ligand, and the buffer I or II to each test tube, each assay was started by addition of membrane preparation (total volume of 1 ml). After incubation, the assay was terminated by filtration with suction through a Whatman GF/B glass fiber filter using a cell harvester (Brandel, USA). The filters were rapidly washed 3 times with 5 ml of ice-cold 50 mM Tris-HCl buffer (pH 7.7) for ω1 and ω2, or the buffer II for ω3, and transferred to scintillation vials containing 10 ml liquid scintillation cocktail (ACS-II, Amersham, USA). After being allowed to stand for a specific period, retained radioactivity was counted by a liquid scintillation spectrometer. Specific binding of [^3H] ligands was calculated as the difference between amounts of radioactivity bound in the presence and absence of excess unlabeled ligands. The concentration of the test compounds causing 50% inhibition of specific binding of the [3H] ligand (IC50) was determined by probit analysis.

[2] = tested on: mice (stay in light compartment); assay: Light and dark box test (anti-anxiety effect); assay type: in vivo; settings: Mus musculus, po, 0.5 h, male Std-ddY mice, 30 minutes before test, Dunnett test 5%, read-out: Anti-anxiety effect MED (minimum effective dose)
Text: Experiment 2: Light and Dark Box Test (Anti-anxiety Effect)
Anti-anxiety effect of test compounds was examined in a box with light and dark compartments according to the method of Crawley, J. and Goodwin, F. K. [cf., Pharmacol. Biochem. Behav., 13, 167-170 (1980)] with slight modification.
Light and dark box test is a useful, simple and handy method for behaviorally and pharmacologically examining anti-anxiety effect of the drugs, by utilizing the habit of rodents such as mice and rats, etc. which prefer to stay in a dark place, and regarding as positive drug effect the increase of the relative stay of the animals in the light compartment which is an uncomfortable place for the animals. A number of drugs such as cholecystokinin B type receptor antagonists and benzodiazepine drugs, show positive effect in this test.
Light and dark box test was carried out using the test box device (35×17×15 cm) which comprises: a light compartment (20×17×15 cm) consisting of transparent acrylic plates and highly illuminated by an incandescent lamp (1,700 lux); a dark compartment (15×17×15 cm) being made of black acrylic plates connected to the light compartment; and at the boundary of compartments, an opening (4.4×5.0 cm) in which mice can go through freely between two compartments.
Male mice of Std-ddY strain weighing 25-30 g were used in a group of 10. Each trial was started by placing a mouse in the center of the light compartment 30 minutes after oral administration of a test compound, and the time spent by the mouse in the light compartment during a 5 minute observation period was measured, and the rate of the stay of mice in the light compartment to the whole time spent in the experiment was calculated (rate of light compartment stay, %).
The anti-anxiety effect of the test compound was represented by the minimum effective dose (MED) at which the increasing rate of the relative stay in the light compartment was regarded as statistically significant (Dunnett test, significance level: 5%). 4.

[3] = tested on: mice (lethality); assay: Acute toxicity; assay type: in vivo, mouse; settings: male Std-ddY mice, oral 2000 mg/kg, observed for 7 days
Experimental: Experiment 4: Acute Toxicity
Male mice of Std-ddY strain weighing 25-30 g were used in a group of 10 animals for examining on the compound of Example 1. A test compound was suspended in 0.5% tragacanth and administered orally to the mice at a dose of 2000 mg/kg.

[4] = tested on: mice (isoniazid-induced clonic convulsion); assay: Isoniazid-induced clonic convulsion test (anti-convulsant effect); assay type: in vivo, mouse; settings: male Std-ddY mice, oral, 30 minutes before isoniazid 200 mg/kg s.c.; dose prolonging onset time by 25%
Text: Experiment 3: Isoniazid-induced Clonic Convulsion Test (Anti-convulsant Effect)
Isoniazid inhibits glutamate decarboxylase that catalyzes GABA biosynthesis, decrease brain GABA levels, and induces clonic convulsion. According to the method of Auta, J. et al. [cf., J. Pharmacol. Exp. Ther., 265, 649-656 (1993)] with slight modification, antagonistic effects of the test compounds on isoniazid-induced clonic convulsion were examined. […] Such drugs are BZ receptor agonists represented by diazepam, neurosteroids such as allopregnanolone, allotetrahydro-deoxycorticosterone (THDOC) and BZω3 receptor agonists, which enhance the synthesis of neurosteroids.
Male mice of Std-ddY strain weighing 22-24 g were used in a group of 6. Thirty minutes after oral administration of the test compounds, mice were injected with isoniazid (200 mg/kg) subcutaneously, and immediately thereafter, the mice were placed individually in plastic observation cages. The onset time of clonic convulsion was measured (cut-off time: 90 minutes). The latency in the control group was about 40 minutes.
Anti-isoniazid effect of the test compounds was expressed by the dose, which prolonged the onset time by 25% compared to that in the vehicle group (ED25). The ED25 value was calculated according to the Probit method.

CCN(C(=O)Cn1c(=O)n(C)c2nc(-c3ccccc3)ncc21)c1ccccc1 [Example 1, N-ethyl-8,9-dihydro-9-methyl-8-oxo-2-phenyl-N-phenyl-7H-purin-7-acetamide]
IC50 [1]: 2 nM
minimal effective dose [2]: 1 to 3 µg/kg
lethality [3]: no lethality

CCCN(CCC)C(=O)Cn1c(=O)n(C)c2cnc(-c3ccccc3)nc21 [Example 106, 7,8-dihydro-7-methyl-8-oxo-2-phenyl-N,N-dipropyl-9H-purin-9-acetamide]
IC50 [1]: 1.2 nM
minimal effective dose [2]: 1 to 3 µg/kg
Anti-convulsant effect ED25 [4]: 100000 µg/kg

CCCN(CCC)C(=O)Cn1c(=O)n(CC)c2cnc(-c3ccccc3)nc21 [Example 107, 7-ethyl-7,8-dihydro-8-oxo-2-phenyl-N,N-dipropyl-9H-purin-9-acetamide]
IC50 [1]: 0.66 nM
minimal effective dose [2]: 1 to 3 µg/kg
Anti-convulsant effect ED25 [4]: 33000 µg/kg
melting point: 98 to 99 °C

CCCN(CCC)C(=O)Cn1c(=O)n(C)c2cnc(-c3ccc(Cl)cc3)nc21 [Example 112]
IC50 [1]: 0.73 nM
Anti-convulsant effect ED25 [4]: 73600 µg/kg
melting point: 135 to 137 °C
